Results taken from ChEMBL document CHEMBL3352544, “Screening and identification of novel compounds with potential anti-proliferative effects on gallium-resistant lung cancer through an AXL kinase pathway” (Bioorg Med Chem Lett, 2014).
Active and inactive are the calls of the source. The calls are words filed in the database; no cut-off is given here.

How the values were obtained:
Type in all cases: functional, cell-based
A549 [1] = assay: Antiproliferative activity against gallium-resistant human A549 cells after 48 hrs by MTT assay; conditions: A549, 48 h
A549 [2] = assay: Potentiation of gallium acetylacetonate-induced antiproliferative activity against gallium-resistant human A549 cells assessed as allium acetylacetonate IC50 at 0.25 uM after 48 hrs by MTT assay; conditions: A549, 48 h
A549 [3] = assay: Antiproliferative activity against gallium-sensitive human A549 cells after 48 hrs by MTT assay; conditions: A549, 48 h
A549 [4] = assay: Potentiation of gallium acetylacetonate-induced antiproliferative activity against gallium-resistant human A549 cells at 0.25 uM after 48 hrs by MTT assay
A549 [5] = assay: Reduction in AXL protein expression in gallium-resistant human A549 cells at 50 uM fter 48 hrs by immunofluorescence assay
A549 [6] = assay: Effect on AXL protein expression in gallium-sensitive human A549 cells at 50 uM fter 48 hrs by immunofluorescence assay
A549 [7] = assay: Potentiation of gallium acetylacetonate-induced antiproliferative activity against gallium-sensitive human A549 cells at 0.25 uM after 48 hrs by MTT assay

Row | Structure (SMILES) | IC50 (A549 [1]) | IC50 (A549 [2]) | IC50 (A549 [3]) | Activity (A549 [4]) | Activity (A549 [5]) | Activity (A549 [6]) | Activity (A549 [7])
1 | Oc1c(CN2CCN(Cc3ccc4cccnc4c3O)CC2)ccc2cccnc12 | 2.8 µM | 102 µM | 3.6 µM | Active | Active | inactive | inactive
2 | O=C(CSc1nnnn1-c1cccc2ccccc12)c1ccc(O)c(O)c1 | 17.4 µM | 199 µM | 8.6 µM | Active | Active | inactive | inactive
